For 12 molecules, GI50 and TGI results are on record in PubChem BioAssay (NCI).

Common to all, as to assay: NCI-60 cell line screen, 48 h
Test [1] concerns K-562 leukemia.
The subject of test [2] is SN12C renal.
For test [3], the system named is SK-MEL-2 melanoma.
Test [4] has as its system NCI/ADR-RES ovarian.
The subject of test [5] is LOX IMVI melanoma.
In test [6] the test system is RPMI-8226 leukemia.
The subject of test [7] is HCC-2998 colon.
The subject of test [8] is HCT-15 colon.
Test [9] deals with MOLT-4 leukemia.
The test system of test [10] is CCRF-CEM leukemia.

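Dose response: 5 concentrations. Exposure: 48 h. Format: 96-well plates. Endpoint: linear interpolation; highest concentration if not reached. The concentration for 50% growth inhibition is given as GI50. TGI: concentration producing complete growth inhibition.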

As for `CC(C)C[C@H](NC(=O)/C=C/Cn1ccc2ccccc2c1=O)B(O)O`, the GI50 in test [1] is 6 µM; in test [2], 6.32 µM; in test [3] it was 3.12 µM; in test [4], 90.8 µM; in test [5], 2.88 µM; in test [6] it was 0.845 µM. The GI50 in [7] was 4.38 µM; in test [8], 6.55 µM; in test [9] it was 2.73 µM. For the same molecule, the TGI is more than 100 µM in test [1]; more than 100 µM in [2]; 23.5 µM in test [3]; more than 100 µM in [4]; 10.7 µM in [5]; more than 100 µM in test [6]. The figures for the TGI in test [7], in test [8] and in test [9] were 14.2 µM, 48.2 µM and 12.5 µM, respectively.

As for `C1C[OH+]CC[OH+]CC[OH+]CC[OH+]CC[OH+]1.[Cl-].[V]`, the GI50 in test [1] was more than 100 µM; in [2] it was more than 100 µM; in test [3], 48.2 µM; in [10] it was more than 100000 nM; in test [5], 30.6 µM; in test [6] it was more than 100 µM. For the same molecule, the GI50 in test [7], in test [8] and in test [9] was more than 100 µM each time. The TGI in test [1], in [2], in test [3], in test [10], in [5] and in test [6] was more than 100 µM each time. The TGI in [7], in test [8] and in test [9] was more than 100 µM each time.

As for `N#Cc1cccnc1Cl`, the TGI in test [1], in [2], in [3], in test [10], in test [5] and in [6] was more than 100 µM each time. Moreover, the TGI in [7], in test [8] and in test [9] was more than 100 µM each time.

For `CCOC(=O)c1ccc(C)c(N=NN(C)C)c1`, the TGI in test [1], in test [2], in test [3], in [10], in test [5] and in test [6] was more than 100 µM each time. Also, the TGI in test [7], in test [8] and in test [9] was more than 100 µM in each case.

In the case of `O=C(Nc1c(Cl)cc([N+](=O)[O-])cc1Cl)C(=O)C(C1OC(=O)c2ccccc21)[N+](=O)[O-]` (configuration not stated), the TGI in [1], in test [2], in [3], in test [10], in test [5] and in [6] was more than 100 µM throughout. Besides, the TGI in [7], in test [8] and in test [9] was more than 100 µM each time.

For the molecule `O=C1CCCC[C@H]1[C@H]1CCC[C@@H]([C@H]2CCCCC2=O)C1=O`, the TGI in test [1], in test [2], in test [3], in test [10], in [5] and in test [6] was more than 100 µM each time. The TGI in test [7], in test [8] and in test [9] was more than 100 µM each time.

For `N#CC1CC2(C1)OCCS2` (configuration not stated), the TGI in test [1], in test [2], in test [3], in test [10], in test [5] and in test [6] was more than 100 µM throughout. Moreover, the TGI in test [7], in [8] and in test [9] was more than 100 µM throughout.

On to `O=C(NCO)NCOCn1c(=O)n(CO)c(=O)n(CO)c1=O`, for which the TGI in test [1] is more than 79.2 µM; in [2], more than 100 µM; in test [3], 33.8 µM; in test [10], 23.6 µM; in [5], 37.3 µM; in [6], 68.4 µM. Also, the TGI was more than 100 µM in test [7], 60.9 µM in test [8] and more than 65.9 µM in [9].

Take `COc1cc(NC(C)CCCN)c2nccc(C)c2c1` (configuration not stated): the TGI in test [2] was more than 100 µM; in test [3], 37.9 µM; in [4], more than 100 µM; in test [6] it was 60.7 µM; in test [7], 38.7 µM; in test [8], 49.7 µM.

As for `COc1cc(/C=C/c2ccc(OC)c(OC)c2)cc(OC)c1`, the TGI is more than 100 µM in test [1]; 96.6 µM in test [2]; more than 100 µM in test [3]; 60 µM in test [4]; more than 100 µM in test [10]; 41.8 µM in [5]. For the same molecule, the TGI is more than 100 µM in test [6], 23.7 µM in test [8] and more than 100 µM in test [9].

For the molecule `COc1ccc(C(=O)COc2ccc(/C=C3\COc4ccc(OC)cc4C3=O)cc2)cc1`, the GI50 is 4.09 µM in [1]; 30.9 µM in [2]; 37.5 µM in test [3]; 12 µM in test [4]; 2860 nM in test [10]; 6.59 µM in test [5]. For the same molecule, the GI50 in test [6] is 3.47 µM; in test [8], 22.3 µM; in test [9] it was 9.36 µM. Also, the TGI in [1] was 61.2 µM; in [2], more than 100 µM; in test [3] it was more than 100 µM; in test [4], 32.3 µM; in test [10], 10.2 µM; in test [5], 24.2 µM. Moreover, the TGI in test [6] is 22.6 µM; in test [8], more than 100 µM; in test [9], 51.6 µM.

Take `O=C(O)[C@H](NS(=O)(=O)c1ccc([N+](=O)[O-])cc1)c1ccccc1`: the TGI in test [1], in test [2], in test [3], in [10], in [5] and in test [6] was more than 100 µM each time. Besides, the TGI in test [7], in [8] and in test [9] was more than 100 µM each time.
